Data taken from US20250368648A1, “MULTI-CYCLIC IRAK AND FLT3 INHIBITING COMPOUNDS AND USES THEREOF” (CHILDREN'S HOSPITAL MEDICAL CENTER, priority 2022, published 2025).
pIC50: −log10 of the molar value.

Columns and labels:
IRAK1 = molecular target: T1, IRAK1 (Homo sapiens, UniProt P51617); test: RBC HotSpot Kinase Assay, IRAK1; assay type: biochemical; details: HotSpot functional assay, isolated kinase enzyme, 33P-ATP
T1 construct: purchased RBC (Reaction Biology) HotSpot assay
Text: (§1) This assay uses the isolated kinase enzyme. This assay is very useful for determining competition of the inhibitor for ATP and/or substrates and for measuring the kinetics of enzyme inhibition. […] Unlike kinase binding assays that measure competition for ATP, the HotSpot Kinase Assay is a functional assay that measures catalytic activity; as such it measures relative functional potency regardless of the mechanism of enzyme inhibition. This assay uses the form of the various enzymes that are easiest to express, which may not necessarily be the form of the enzyme that exist in the cell. (Sometimes the carboxy terminus has been truncated to aid in expression, or, if it is a receptor kinase, the enzyme itself is isolated from the other parts of the receptor that are involved in regulating kinase activity.)
(§2) The reagent used was as follows: Base Reaction buffer; 20 mM Hepes (pH 7.5), 10 mM MgCl2, 1 mM EGTA, 0.01% Brij35, 0.02 mg/mi BSA, 0.1 mM Na3VO4, 2 mM DTT, 1% DMSO. Required cofactors were added individually to each kinase reaction.
(§3) The reaction procedure was as follows: • 1) Substrates were prepared in freshly prepared Reaction Buffer. • 2) Any required cofactors were delivered to the substrate solution above. • 3) Kinase was delivered into the substrate solution and gently mixed. • 4) Compounds were delivered in 100% DMSO into the kinase reaction mixture by Acoustic technology (Echo550, nanoliter range), followed by incubation for 20 min at room temp. • 5) ^33P-ATP was delivered into the reaction mixture to initiate the reaction. • 6) The mixture was incubated for 2 hours at room temperature. • 7) Kinase activity was detected by P81 filter-binding method.

MOLM14 D835Y cells = test: MOLM14 D835Y cell viability assay (Cell Titer Glo); assay type: cell-based
Description: The cell line has activated FLT3 receptors which carry additional resistance mutations in the kinase domain (D835Y).
MOLM14 D835Y cells were grown in RPMI-1640 media supplemented with 20% fetal bovine serum (FBS). […] After cell addition, 23 nL of test compound were transferred into individual wells (22 doses tested for each test compound, with a 1:2 dilution series starting at 10 μM) via a 1536 pin-tool. Bortezomib (final concentration 2.3 μM) was used as a positive control for cell cytotoxicity.

IRAK4 = molecular target: T2, IRAK4 (Homo sapiens, UniProt Q9NWZ3); test: RBC HotSpot Kinase Assay, IRAK4; assay type: biochemical; parameters: purchased RBC (Reaction Biology) HotSpot assay; details: HotSpot functional assay, isolated kinase enzyme, 33P-ATP
T2 sequence (Q9NWZ3 1-460): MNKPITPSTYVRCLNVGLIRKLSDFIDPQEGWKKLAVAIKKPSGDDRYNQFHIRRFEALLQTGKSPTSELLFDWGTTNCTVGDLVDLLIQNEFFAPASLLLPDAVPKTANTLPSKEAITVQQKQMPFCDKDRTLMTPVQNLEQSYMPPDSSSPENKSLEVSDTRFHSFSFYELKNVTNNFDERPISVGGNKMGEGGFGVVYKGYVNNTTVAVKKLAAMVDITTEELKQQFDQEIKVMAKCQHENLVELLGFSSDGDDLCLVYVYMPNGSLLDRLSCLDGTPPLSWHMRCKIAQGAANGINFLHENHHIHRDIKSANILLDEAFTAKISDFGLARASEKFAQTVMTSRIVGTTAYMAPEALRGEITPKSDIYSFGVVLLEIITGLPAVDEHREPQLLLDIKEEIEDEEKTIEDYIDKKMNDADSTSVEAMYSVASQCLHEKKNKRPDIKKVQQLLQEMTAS
Text: as §1, §2, §3

FLT3 = molecular target: T3, FLT3 (Homo sapiens, UniProt P36888); test: RBC HotSpot Kinase Assay, FLT3; assay type: biochemical; parameters: purchased RBC (Reaction Biology) HotSpot assay; details: HotSpot functional assay, isolated kinase enzyme, 33P-ATP
T3 sequence (P36888 27-993): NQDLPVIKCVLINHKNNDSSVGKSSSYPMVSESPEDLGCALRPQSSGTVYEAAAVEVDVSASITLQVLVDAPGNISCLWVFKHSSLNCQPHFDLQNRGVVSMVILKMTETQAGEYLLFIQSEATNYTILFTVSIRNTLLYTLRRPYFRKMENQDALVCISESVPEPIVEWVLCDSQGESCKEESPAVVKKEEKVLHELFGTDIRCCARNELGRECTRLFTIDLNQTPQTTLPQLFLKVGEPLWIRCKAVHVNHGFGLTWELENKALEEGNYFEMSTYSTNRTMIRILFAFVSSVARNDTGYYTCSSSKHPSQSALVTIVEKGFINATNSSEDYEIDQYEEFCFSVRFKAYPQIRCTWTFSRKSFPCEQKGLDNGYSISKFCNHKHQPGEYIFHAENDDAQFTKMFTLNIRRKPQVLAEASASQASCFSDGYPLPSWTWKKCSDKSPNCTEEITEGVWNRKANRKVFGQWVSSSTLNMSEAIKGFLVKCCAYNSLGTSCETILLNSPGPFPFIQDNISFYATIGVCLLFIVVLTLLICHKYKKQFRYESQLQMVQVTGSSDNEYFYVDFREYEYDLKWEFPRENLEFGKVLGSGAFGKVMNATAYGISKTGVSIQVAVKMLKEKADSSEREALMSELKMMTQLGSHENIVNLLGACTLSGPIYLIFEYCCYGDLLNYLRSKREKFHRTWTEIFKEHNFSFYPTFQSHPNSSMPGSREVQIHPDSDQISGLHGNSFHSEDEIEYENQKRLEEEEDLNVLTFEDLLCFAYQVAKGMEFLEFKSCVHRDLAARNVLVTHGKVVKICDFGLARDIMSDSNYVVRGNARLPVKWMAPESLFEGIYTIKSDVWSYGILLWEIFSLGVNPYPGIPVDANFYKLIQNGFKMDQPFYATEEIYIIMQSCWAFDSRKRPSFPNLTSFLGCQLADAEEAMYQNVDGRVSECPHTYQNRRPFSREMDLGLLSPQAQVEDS
Text: as §1, §2, §3

T1 sequence (P51617 whole entry): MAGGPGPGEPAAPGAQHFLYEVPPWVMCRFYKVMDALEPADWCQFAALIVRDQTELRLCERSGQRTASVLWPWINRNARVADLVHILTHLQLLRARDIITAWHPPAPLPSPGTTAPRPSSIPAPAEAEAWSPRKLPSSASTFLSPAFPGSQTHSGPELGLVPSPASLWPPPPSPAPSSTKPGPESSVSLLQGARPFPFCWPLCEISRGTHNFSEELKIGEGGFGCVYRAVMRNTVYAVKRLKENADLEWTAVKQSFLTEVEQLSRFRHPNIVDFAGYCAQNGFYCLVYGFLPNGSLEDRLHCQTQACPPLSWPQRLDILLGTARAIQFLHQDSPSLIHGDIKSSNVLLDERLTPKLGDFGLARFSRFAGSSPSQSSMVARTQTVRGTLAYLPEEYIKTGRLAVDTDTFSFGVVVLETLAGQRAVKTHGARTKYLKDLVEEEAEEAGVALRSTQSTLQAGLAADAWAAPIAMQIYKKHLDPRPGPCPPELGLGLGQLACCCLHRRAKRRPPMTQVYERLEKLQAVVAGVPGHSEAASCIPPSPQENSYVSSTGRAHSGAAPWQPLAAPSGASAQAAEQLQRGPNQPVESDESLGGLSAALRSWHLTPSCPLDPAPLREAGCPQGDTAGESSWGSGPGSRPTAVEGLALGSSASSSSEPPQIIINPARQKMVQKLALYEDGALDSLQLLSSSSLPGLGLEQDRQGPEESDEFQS

Compound	pIC50 (IRAK1)	pIC50 (IRAK4)	pIC50 (FLT3)	pIC50 (MOLM14 D835Y cells; 48 hours)	pIC50 (MOLM14 D835Y cells; Homo sapiens, MOLM-14, 48 h)
COc1cc2ncc(-c3nc(N[C@H]4CNCC[C@@H]4F)c(F)cc3F)n2nc1C(C)(O)C(F)(F)F (single isomer, unassigned) [Compound 76a]	6.24	7.11	> 9.30	7.09	–
COc1cc2ncc(-c3nc(N[C@H]4CNC[C@@H]4F)c(F)cc3F)n2nc1C(C)(O)C(F)(F)F (single isomer, unassigned) [Compound 78a]	6.01	7.04	9.00	6.64	–
COc1cc2ncc(-c3nc(N[C@@H]4CCCNC4)c(F)cc3F)n2nc1C(C)(O)C(F)(F)F (single isomer, unassigned) [Compound 79a]	6.09	6.28	> 9.30	7.09	–
COc1cc2ncc(-c3ccc(F)c(N[C@H]4CNCC[C@@H]4F)n3)n2nc1C(C)(C)O [Compound 1a, 2-(3-(5-fluoro-6-(((3S,4S)-4-fluoropiperidin-3-yl)amino)pyridin-2-yl)-7-methoxyimidazo[1,2-b]pyridazin-6-yl)propan-2-ol]	5.63	6.80	8.52	–	6.74
COc1cc2ncc(-c3nc(N[C@H]4CNC[C@@H]4F)ccc3F)n2nc1C(C)(C)O [Compound 2a, 2-(3-(3-fluoro-6-(((3S,4S)-4-fluoropyrrolidin-3-yl)amino)pyridin-2-yl)-7-methoxyimidazo[1,2-b]pyridazin-6-yl)propan-2-ol]	6.21	7.62	9.10	–	6.89
COc1cc2ncc(-c3nc(N[C@@H]4CCCNC4)ccc3F)n2nc1C(C)(C)O [Compound 3a]	6.36	6.83	9.00	–	7.34
COc1cc2ncc(-c3cc(C4CC4)cc(N[C@@H]4CCCNC4)n3)n2nc1C1CC1 [Compound 58a, (R)-4-cyclopropyl-6-(6-cyclopropyl-7-methoxyimidazo[1,2-b]pyridazin-3-yl)-N-(piperidin-3-yl)pyridin-2-amine]	< 5.00	< 5.00	8.30	–	–
COc1cc2ncc(-c3cc(Oc4ccccc4)cc(N[C@@H]4CCCNC4)n3)n2nc1C1CC1 [Compound 59a, (R)-6-(6-cyclopropyl-7-methoxyimidazo[1,2-b]pyridazin-3-yl)-4-phenoxy-N-(piperidin-3-yl)pyridin-2-amine]	< 5.00	< 5.00	7.02	–	–
COc1cc2ncc(-c3cc(Oc4ccccc4)cc(N[C@H]4CNC[C@@H]4F)n3)n2nc1C1CC1 [Compound 60a, 6-(6-cyclopropyl-7-methoxyimidazo[1,2-b]pyridazin-3-yl)-N-((3S,4S)-4-fluoropyrrolidin-3-yl)-4-phenoxypyridin-2-amine]	< 5.00	< 5.00	6.56	–	–
COc1cc2ncc(-c3cc(Oc4ccccc4)cc(N[C@H]4CNCC[C@@H]4F)n3)n2nc1C1CC1 [Compound 61a, 6-(6-cyclopropyl-7-methoxyimidazo[1,2-b]pyridazin-3-yl)-N-((3S,4S)-4-fluoropiperidin-3-yl)-4-phenoxypyridin-2-amine]	< 5.00	< 5.00	7.03	–	–
COc1cc2ncc(-c3nc(N[C@@H]4CCCNC4)c(C)cc3C)n2nc1C1CC1 [Compound 62a]	< 5.00	< 5.00	5.85	–	–

Further lines, with some results ahead:

pIC50 (IRAK1)	pIC50 (IRAK4)	pIC50 (FLT3)	Compound	pIC50 (MOLM14 D835Y cells; 48 hours)	pIC50 (MOLM14 D835Y cells; Homo sapiens, MOLM-14, 48 h)
< 5.00	< 5.00	6.42	COc1cc2ncc(-c3nc(N[C@H]4CNC[C@@H]4F)c(C)cc3C)n2nc1C1CC1 [Compound 63a, 6-(6-cyclopropyl-7-methoxyimidazo[1,2-b]pyridazin-3-yl)-N-((3S,4S)-4-fluoropyrrolidin-3-yl)-3,5-dimethylpyridin-2-amine]	–	–
< 5.00	< 5.00	6.09	COc1cc2ncc(-c3nc(N[C@H]4CNCC[C@@H]4F)c(C)cc3C)n2nc1C1CC1 [Compound 64a, 6-(6-cyclopropyl-7-methoxyimidazo[1,2-b]pyridazin-3-yl)-N-((3S,4S)-4-fluoropiperidin-3-yl)-3,5-dimethylpyridin-2-amine]	–	–
7.68	8.70	> 9.30	COc1cc2ncc(-c3nc(N[C@H]4CNC[C@@H]4F)c(F)cc3F)n2nc1C12CC(C1)C2 [Compound 66a, 6-(6-(bicyclo[1.1.1]pentan-1-yl)-7-methoxyimidazo[1,2-b]pyridazin-3-yl)-3,5-difluoro-N-((3S,4S)-4-fluoropyrrolidin-3-yl)pyridin-2-amine]	–	–
7.72	8.15	> 9.30	COc1cc2ncc(-c3nc(N[C@@H]4CCCNC4)c(F)cc3F)n2nc1N1CCCS1(=O)=O [Compound 68a, (R)-2-(3-(3,5-difluoro-6-(piperidin-3-ylamino)pyridin-2-yl)-7-methoxyimidazo[1,2-b]pyridazin-6-yl)isothiazolidine 1,1-dioxide]	–	–
6.90	8.40	> 9.30	COc1cc2ncc(-c3nc(N[C@H]4CNC[C@@H]4F)c(F)cc3F)n2nc1N1CCCS1(=O)=O [Compound 69a, 2-(3-(3,5-difluoro-6-(((3S,4S)-4-fluoropyrrolidin-3-yl)amino)pyridin-2-yl)-7-methoxyimidazo[1,2-b]pyridazin-6-yl)isothiazolidine 1,1-dioxide]	–	–
7.22	8.00	> 9.30	COc1cc2ncc(-c3nc(N[C@H]4CNCC[C@@H]4F)c(F)cc3F)n2nc1N1CCCS1(=O)=O [Compound 70a, 2-(3-(3,5-difluoro-6-(((3S,4S)-4-fluoropiperidin-3-yl)amino)pyridin-2-yl)-7-methoxyimidazo[1,2-b]pyridazin-6-yl)isothiazolidine 1,1-dioxide]	–	–
6.30	7.55	> 9.30	COc1cc2ncc(-c3nc(N[C@@H]4CCCNC4)c(F)cc3F)n2nc1C1COC1 [Compound 72a, (R)-3,5-difluoro-6-(7-methoxy-6-(oxetan-3-yl)imidazo[1,2-b]pyridazin-3-yl)-N-(piperidin-3-yl)pyridin-2-amine]	–	–
